In ChEMBL document CHEMBL1909046, “DrugMatrix in vitro pharmacology data” one finds IC50 and Ki data, which are given here for eight compounds.

One test deals with T1, Caspase-1 (Homo sapiens, UniProt P29466).
T1 sequence (P29466 whole entry): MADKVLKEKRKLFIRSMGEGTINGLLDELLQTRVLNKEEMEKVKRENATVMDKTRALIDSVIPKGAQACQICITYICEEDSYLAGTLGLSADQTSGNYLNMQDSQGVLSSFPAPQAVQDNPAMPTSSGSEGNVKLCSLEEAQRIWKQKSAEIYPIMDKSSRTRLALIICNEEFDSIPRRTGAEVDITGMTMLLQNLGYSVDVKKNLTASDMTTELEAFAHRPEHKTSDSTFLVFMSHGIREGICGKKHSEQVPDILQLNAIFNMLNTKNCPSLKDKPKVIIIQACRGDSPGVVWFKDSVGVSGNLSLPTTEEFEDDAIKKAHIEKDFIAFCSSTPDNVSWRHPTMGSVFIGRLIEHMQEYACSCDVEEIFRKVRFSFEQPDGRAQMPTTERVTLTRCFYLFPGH
Further details: species or system Escherichia coli.

A further test concerns the target Vasopressin V1a receptor (Homo sapiens, UniProt P37288). In kind it is cell membranes, Membrane. The conditions noted are these: hek293. Also: in other assays of this panel Not Active means under 50% inhibition at 10 µM.
Test [1] concerns the target T2, Muscarinic acetylcholine receptor M5 (Homo sapiens, UniProt P08912). Also: in other assays of this panel Not Active means under 50% inhibition at 10 µM.
T2 sequence (P08912 whole entry): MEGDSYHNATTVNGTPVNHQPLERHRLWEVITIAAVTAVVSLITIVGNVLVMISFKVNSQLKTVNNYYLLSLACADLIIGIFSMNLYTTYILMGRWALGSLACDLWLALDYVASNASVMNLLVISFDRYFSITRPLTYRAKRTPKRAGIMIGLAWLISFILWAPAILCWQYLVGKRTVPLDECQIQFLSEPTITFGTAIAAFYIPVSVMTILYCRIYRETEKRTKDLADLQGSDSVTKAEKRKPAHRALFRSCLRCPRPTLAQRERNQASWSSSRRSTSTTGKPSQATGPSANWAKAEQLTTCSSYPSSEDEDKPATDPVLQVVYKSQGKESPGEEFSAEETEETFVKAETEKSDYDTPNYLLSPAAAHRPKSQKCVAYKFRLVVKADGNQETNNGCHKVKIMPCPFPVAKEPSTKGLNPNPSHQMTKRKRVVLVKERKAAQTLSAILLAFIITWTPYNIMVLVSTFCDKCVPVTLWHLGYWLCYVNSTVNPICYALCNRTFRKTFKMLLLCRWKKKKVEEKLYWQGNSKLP
The class given is cell membranes, CHO-K1, Membrane. The conditions noted are these: cho-k1.

Test [2] concerns the target Vascular endothelial growth factor receptor 1 (Homo sapiens, UniProt P17948). In kind it is cell-based. The conditions noted are these: huvec. Also: in other assays of this panel Not Active means under 50% inhibition at 10 µM.
The target in test [3] is T3, 3-hydroxy-3-methylglutaryl-coenzyme A reductase (Homo sapiens, UniProt P04035).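 Also: enzyme inhibition assay of HMG-CoA reductase using radiolabeled [14C]HMG-CoA as substrate; in other assays of this panel Not Active means under 50% inhibition at 10 µM.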
T3 sequence (P04035 whole entry): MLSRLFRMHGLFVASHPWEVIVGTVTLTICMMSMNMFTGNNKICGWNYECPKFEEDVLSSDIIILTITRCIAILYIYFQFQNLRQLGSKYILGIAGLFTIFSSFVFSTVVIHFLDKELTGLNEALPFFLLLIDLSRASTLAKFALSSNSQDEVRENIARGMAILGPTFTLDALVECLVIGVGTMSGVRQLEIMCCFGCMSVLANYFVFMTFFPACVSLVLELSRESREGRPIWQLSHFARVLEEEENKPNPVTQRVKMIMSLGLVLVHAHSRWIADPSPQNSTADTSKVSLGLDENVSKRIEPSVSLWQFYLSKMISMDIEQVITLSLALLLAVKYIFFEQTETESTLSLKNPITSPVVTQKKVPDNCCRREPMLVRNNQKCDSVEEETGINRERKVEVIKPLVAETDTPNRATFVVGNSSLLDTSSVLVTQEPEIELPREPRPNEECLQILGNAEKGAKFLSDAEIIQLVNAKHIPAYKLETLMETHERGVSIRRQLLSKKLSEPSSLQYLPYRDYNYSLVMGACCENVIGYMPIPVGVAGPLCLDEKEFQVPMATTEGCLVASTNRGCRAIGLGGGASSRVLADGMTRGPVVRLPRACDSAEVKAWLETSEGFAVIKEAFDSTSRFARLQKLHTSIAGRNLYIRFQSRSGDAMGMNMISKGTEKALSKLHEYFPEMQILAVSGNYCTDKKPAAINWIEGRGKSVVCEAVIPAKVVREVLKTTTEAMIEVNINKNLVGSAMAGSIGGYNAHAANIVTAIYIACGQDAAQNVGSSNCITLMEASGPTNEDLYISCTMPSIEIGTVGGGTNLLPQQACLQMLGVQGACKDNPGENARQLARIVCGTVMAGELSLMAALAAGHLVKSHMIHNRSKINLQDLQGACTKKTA
The arrangement: species or system Escherichia coli.

Test [4] deals with Mitogen-activated protein kinase 14 (Homo sapiens, UniProt Q16539). Further details: species or system Escherichia coli.
Mitogen-activated protein kinase 14, sequence (Q16539 whole entry): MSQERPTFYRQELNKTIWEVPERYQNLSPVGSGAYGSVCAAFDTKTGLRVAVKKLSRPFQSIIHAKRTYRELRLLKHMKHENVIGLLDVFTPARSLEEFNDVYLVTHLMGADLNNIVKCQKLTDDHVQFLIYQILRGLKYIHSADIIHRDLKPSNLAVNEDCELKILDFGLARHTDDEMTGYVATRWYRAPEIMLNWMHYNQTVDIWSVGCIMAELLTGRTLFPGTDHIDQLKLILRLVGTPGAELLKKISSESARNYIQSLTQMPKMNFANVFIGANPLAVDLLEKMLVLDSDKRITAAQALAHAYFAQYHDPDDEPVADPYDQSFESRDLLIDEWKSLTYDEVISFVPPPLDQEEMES
In test [5] the target is T4, Muscarinic acetylcholine receptor M2 (Homo sapiens, UniProt P08172). Also: in other assays of this panel Not Active means under 50% inhibition at 10 µM.
T4 sequence (P08172 whole entry): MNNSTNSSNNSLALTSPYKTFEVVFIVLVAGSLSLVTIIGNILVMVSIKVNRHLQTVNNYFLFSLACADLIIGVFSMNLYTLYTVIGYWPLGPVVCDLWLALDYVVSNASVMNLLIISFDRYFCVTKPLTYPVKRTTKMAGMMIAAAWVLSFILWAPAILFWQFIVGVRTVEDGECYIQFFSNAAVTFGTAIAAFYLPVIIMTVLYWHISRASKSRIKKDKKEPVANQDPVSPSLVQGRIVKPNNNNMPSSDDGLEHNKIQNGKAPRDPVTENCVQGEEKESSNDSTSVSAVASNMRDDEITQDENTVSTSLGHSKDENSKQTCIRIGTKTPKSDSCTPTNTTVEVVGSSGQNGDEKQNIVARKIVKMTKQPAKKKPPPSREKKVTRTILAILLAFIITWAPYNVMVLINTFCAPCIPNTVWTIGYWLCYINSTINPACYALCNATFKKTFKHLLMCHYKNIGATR
The class given is cell membranes, CHO-K1, Membrane. The conditions noted are these: cho-k1.

Test [6] in a line: DRUGMATRIX: Sodium/nucleoside co-transporter radioligand binding (ligand: nitrobenzylthioinosine). The class given is cell membranes, Cavia porcellus, Dunkin-Hartley, Cerebral cortex, Membrane. The conditions noted are these: Not Active = under 50% inhibition at 10 µM.
Test [7] can be described thus: DRUGMATRIX: GABAA, Flunitrazepam, Central radioligand binding (ligand: [3H] Flunitrazepam). In kind it is cell membranes, Rattus norvegicus, Wistar, Brain, Membrane. The conditions noted are these: Not Active = under 50% inhibition at 10 µM.
The target of test [8] is Kappa-type opioid receptor (Homo sapiens, UniProt P41145). In words: DRUGMATRIX: Opiate kappa (OP2, KOP) radioligand binding (ligand: [3H] Diprenorphine). The conditions noted are these: hek293; Not Active = under 50% inhibition at 10 µM. The class given is cell membranes, HEK293, Membrane.
Kappa-type opioid receptor, sequence (P41145 whole entry): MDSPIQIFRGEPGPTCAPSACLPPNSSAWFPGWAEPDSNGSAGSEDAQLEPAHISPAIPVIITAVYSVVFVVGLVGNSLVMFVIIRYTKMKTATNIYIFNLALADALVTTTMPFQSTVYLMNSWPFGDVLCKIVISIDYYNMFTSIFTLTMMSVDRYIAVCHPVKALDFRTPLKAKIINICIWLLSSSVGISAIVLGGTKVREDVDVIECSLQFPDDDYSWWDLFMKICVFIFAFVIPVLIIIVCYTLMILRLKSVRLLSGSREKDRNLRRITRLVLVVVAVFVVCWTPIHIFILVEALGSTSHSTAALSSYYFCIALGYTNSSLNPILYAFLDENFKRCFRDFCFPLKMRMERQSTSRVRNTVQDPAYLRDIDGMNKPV

Molecules are shown by their SMILES. Where a SMILES comes first, the peptide text is derived from it. Bridges are numbered along the chain shown (N, C = ends). [ ]: non-standard residue; d: D form. The star is where a group is joined. Ileψ(thiazoline)Cys = CC[C@H](C)[C@H](N)C1=N[C@H](C(=O)*)CS1; dOrn = NCCC[C@@H](N)C(=O)O

What is called IC50 is the concentration needed to halve the response being measured.

Vasopressin V1a receptor, sequence (P37288 whole entry): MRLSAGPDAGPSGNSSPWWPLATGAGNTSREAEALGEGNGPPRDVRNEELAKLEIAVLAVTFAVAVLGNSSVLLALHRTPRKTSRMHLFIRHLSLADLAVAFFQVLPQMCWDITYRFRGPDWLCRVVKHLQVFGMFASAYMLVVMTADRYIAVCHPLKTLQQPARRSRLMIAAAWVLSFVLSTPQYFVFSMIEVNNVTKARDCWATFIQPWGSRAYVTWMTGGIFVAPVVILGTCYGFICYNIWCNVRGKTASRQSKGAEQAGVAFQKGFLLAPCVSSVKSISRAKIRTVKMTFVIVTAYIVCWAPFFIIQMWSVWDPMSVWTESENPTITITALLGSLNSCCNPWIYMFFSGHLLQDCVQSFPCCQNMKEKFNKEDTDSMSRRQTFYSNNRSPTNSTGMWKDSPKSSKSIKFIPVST
Vascular endothelial growth factor receptor 1, sequence (P17948 whole entry): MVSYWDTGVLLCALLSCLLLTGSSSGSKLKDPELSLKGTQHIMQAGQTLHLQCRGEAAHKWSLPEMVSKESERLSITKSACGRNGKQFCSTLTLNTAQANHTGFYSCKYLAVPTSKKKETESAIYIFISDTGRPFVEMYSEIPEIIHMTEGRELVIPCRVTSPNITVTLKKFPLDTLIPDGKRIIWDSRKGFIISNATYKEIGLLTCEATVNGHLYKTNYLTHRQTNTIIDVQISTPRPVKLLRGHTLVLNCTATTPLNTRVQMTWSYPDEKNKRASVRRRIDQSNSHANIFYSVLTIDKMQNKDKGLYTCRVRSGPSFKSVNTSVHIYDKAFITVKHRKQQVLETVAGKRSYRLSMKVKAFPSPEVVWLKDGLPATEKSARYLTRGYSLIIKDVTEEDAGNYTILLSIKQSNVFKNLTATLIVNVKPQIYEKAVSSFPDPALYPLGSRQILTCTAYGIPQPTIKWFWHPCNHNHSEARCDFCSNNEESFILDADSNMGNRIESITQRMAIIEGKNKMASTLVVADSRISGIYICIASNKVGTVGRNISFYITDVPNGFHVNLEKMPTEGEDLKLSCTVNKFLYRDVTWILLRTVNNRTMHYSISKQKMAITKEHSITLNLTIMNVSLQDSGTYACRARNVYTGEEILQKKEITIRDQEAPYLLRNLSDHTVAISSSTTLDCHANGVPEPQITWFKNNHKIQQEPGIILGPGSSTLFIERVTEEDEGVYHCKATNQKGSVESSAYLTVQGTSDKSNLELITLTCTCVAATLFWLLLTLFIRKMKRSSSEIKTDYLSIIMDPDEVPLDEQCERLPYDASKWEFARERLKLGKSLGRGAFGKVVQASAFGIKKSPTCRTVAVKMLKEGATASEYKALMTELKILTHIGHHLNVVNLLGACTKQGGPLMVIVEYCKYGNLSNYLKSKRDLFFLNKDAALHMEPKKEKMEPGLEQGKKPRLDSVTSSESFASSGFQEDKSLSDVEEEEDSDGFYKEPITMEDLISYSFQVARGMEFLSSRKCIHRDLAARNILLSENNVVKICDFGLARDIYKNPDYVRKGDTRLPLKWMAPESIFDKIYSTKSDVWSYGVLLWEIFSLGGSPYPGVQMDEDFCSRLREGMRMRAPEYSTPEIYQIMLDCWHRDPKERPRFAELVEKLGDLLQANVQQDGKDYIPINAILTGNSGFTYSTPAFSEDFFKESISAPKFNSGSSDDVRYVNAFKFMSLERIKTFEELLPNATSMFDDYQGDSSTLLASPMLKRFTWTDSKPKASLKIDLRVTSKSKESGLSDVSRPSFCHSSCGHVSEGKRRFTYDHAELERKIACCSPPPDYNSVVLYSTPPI

As for `N=C(N)NCCCCNC(=N)N.O=S(=O)(O)O` [ARCAINE SULFATE], the 50% inhibitory concentration (IC50) result (on Caspase-1; at Vasopressin V1a receptor; in [1]; in test [2]; in test [3]; in test [4]) was “Not Active” in each case. Moreover, the IC50 result in [5], in [6], in test [7] and in test [8] was “Not Active” in each case. Moreover, the Ki entry in test [6] and in test [7] was “Not Active” in each case.

Take `Cn1cnc([N+](=O)[O-])c1Sc1ncnc2nc[nH]c12` [AZATHIOPRINE]: the half-inhibitory concentration (IC50) result (against Caspase-1; against Vasopressin V1a receptor; in [1]; in [2]; in test [3]; in [4]) was “Not Active” in each case. The IC50 entry in [5], in test [6], in test [7] and in test [8] was “Not Active” in each case. Further, the Ki entry in [6] and in test [7] was “Not Active” throughout.

As to `CC1(C)S[C@@H]2[C@H](NC(=O)[C@H](NC(=O)N3CCNC3=O)c3ccccc3)C(=O)N2[C@H]1C(=O)O` [AZLOCILLIN], the IC50 entry (at Caspase-1; against Vasopressin V1a receptor; in test [1]; in test [2]; in test [3]; in [4]) was “Not Active” throughout. The half-maximal inhibitory concentration (IC50) entry in test [5], in test [6], in test [7] and in [8] was “Not Active” throughout. Besides, the Ki result in test [6] and in test [7] was “Not Active” each time.

Take `CC[C@H](C)[C@H](N)C1=N[C@H](C(=O)N[C@@H](CC(C)C)C(=O)N[C@H](CCC(=O)O)C(=O)N[C@H](C(=O)N[C@H]2CCCCNC(=O)[C@H](CC(N)=O)NC(=O)[C@@H](CC(=O)O)NC(=O)[C@H](Cc3cnc[nH]3)NC(=O)[C@@H](Cc3ccccc3)NC(=O)[C@H]([C@@H](C)CC)NC(=O)[C@@H](CCCN)NC2=O)[C@@H](C)CC)CS1` [BACITRACIN] ({Ileψ(thiazoline)Cys}-L[dE]IK[dOrn]I[dF]H[dD]N; lactam 4-C): the half-maximal inhibitory concentration (IC50) entry (against Caspase-1; at Vasopressin V1a receptor; in test [1]; in test [2]; in test [3]; in test [4]) was “Not Active” throughout. In addition, the half-inhibitory concentration (IC50) result in test [5], in [6], in test [7] and in test [8] was “Not Active” each time. The Ki entry in [6] and in test [7] was “Not Active” in each case.

On to `CCOC(=O)c1ccc(N)cc1` [BENZOCAINE], for which the half-inhibitory concentration (IC50) entry (on Caspase-1; on Vasopressin V1a receptor; in test [1]; in [2]; in test [3]; in test [4]) was “Not Active” throughout. The IC50 entry in test [5], in test [6], in test [7] and in [8] was “Not Active” throughout. In addition, the Ki result in test [6] and in [7] was “Not Active” throughout.

As for `OCc1ccccc1` [BENZYL ALCOHOL], the half-maximal inhibitory concentration (IC50) entry (at Caspase-1; at Vasopressin V1a receptor; in test [1]; in [2]; in test [3]; in test [4]) was “Not Active” throughout. The IC50 entry in test [5], in test [6], in [7] and in test [8] was “Not Active” throughout. The Ki result in test [6] and in test [7] was “Not Active” in each case.

For the compound `CC(C)(Oc1ccc(CCNC(=O)c2ccc(Cl)cc2)cc1)C(=O)O` [BEZAFIBRATE], the IC50 result (on Caspase-1; at Vasopressin V1a receptor; in test [1]; in [2]; in test [3]; in [4]) was “Not Active” in each case. Besides, the 50% inhibitory concentration (IC50) entry in test [5], in test [6], in test [7] and in test [8] was “Not Active” in each case. Further, the Ki result in test [6] and in test [7] was “Not Active” each time.

`Oc1c(Cl)cc(Cl)cc1Sc1cc(Cl)cc(Cl)c1O` [BITHIONOL]: the IC50 result on Caspase-1 is “Not Active”; at Vasopressin V1a receptor it was “Not Active”; in test [1] it was “Not Active”; in [2], “Not Active”; in test [3] it was “Not Active”; in test [4] (read-out: IC50) it was 318 nM. The half-maximal inhibitory concentration (IC50) result in [5], in [6], in test [7] and in test [8] was “Not Active” throughout. Also, the Ki entry in test [6] and in [7] was “Not Active” throughout.
